Assay [1] deals with T1, lecA (Pseudomonas aeruginosa, UniProt Q05097). The assay is described as follows: Isothermal titration calorimetry (ITC), binding to lecA. The settings on record: for β/N (improvement in affinity relative to the methyl glycoside, divided by the valency) / ΔG / ΔH / −TΔS / n (stoichiometry): T = 298 K; for n (stoichiometry): glycocluster ligands per monomer of lectin. The procedure: The affinities of the designed glycoconjugates with lecA and lecB were determined by isothermal titration calorimetry (ITC) by addition of the ligands to a solution of lectin (Figure 3). Dissociation constants (Kd) and thermodynamic parameters (ΔG, ΔH, −TΔS) are listed in Table 1, together with the experimental binding stoichiometry (n), defined as the number of glycocluster ligands per monomer of lectin. […]
Isothermal titration microcalorimetry (ITC):
Recombinant lyophilized lecA and lecB were dissolved in buffer (100 mM Tris-HCl pH 7.5, 6 µM CaCl2,) and degassed. The same procedure was applied for lecB with a different buffer (20mM Tris-HCl pH 7.54 100mM NaCl 100µM CaCl2). Protein concentration varied between 50 and 120 µM depending on the ligand affinity. Carbohydrate ligands were dissolved directly into the same buffer, degassed, and placed in the injection syringe. ITC was performed using a VP-ITC MicroCalorimeter from MicroCal Incorporated. lecA was placed into the 1.4478 mL sample cell, at 25°C. Titration was performed with 10 µL injections of carbohydrate ligands every 300 s. Data were fitted using MicroCal Origin 7 software according to standard procedures. Fitted data yielded the stoichiometry (n), the association constant (Ka), and the enthalpy of binding (∆H). Other thermodynamic parameters (i.e., changes in free energy ∆G and entropy ∆S) were calculated from the equation ∆G = ∆H - T∆S = -[…] in which T is the absolute […]
temperature and R = 8.314 Jmol-1K-1. […]
For orientation: Isothermal titration calorimetry measures the heat released or taken up as one component is titrated into another.

Assay [2] has as its target T1, lecA. The assay is described as follows: Dynamic light scattering (DLS), aggregation of lecA. How it is done:
Dynamic light scattering experiments (DLS) were performed on the trivalent and divalent galactose-substituted clusters 1, 16 and 17, as well as the glucose-substituted cluster 13 as a negative control. […] The inability of these systems to efficiently aggregate lectins is in stark contrast to the hexavalent benzene cluster, which may be attributed to differences in rigidity and hydrophobicity between the two systems. It thus appears that the direct diaryl sulfide bridge presents a more optimal degree of semi-rigidity.
Figure 2 Dynamic light scattering experiments of bis-D-galactosyl proparyl cluster 16 with lecA. Distribution by mass for lecA + buffer (left) and lecA + 16 (200 μM, right) at 3 minute intervals. Additional experiments can be found in Supporting Information File 1.

For a further assay, the system named is PAO1 biofilm. The assay is described as follows: P. aeruginosa adherence / biofilm formation assay, crystal violet staining. It counts as cell-based, Pseudomonas aeruginosa. The note with it: 5 mM cluster, 24 h, 30 °C, LB medium, compared to glucose-bearing cluster 13 or absence of cluster. The procedure:
The P. aeruginosa adherence assay was performed in 24 well microplates. Biofilms were obtained after 24 h of incubation at 30 °C in LB medium alone or in the presence or galactose, fucose, or glucose (control)-substituted trivalent clusters and stained with crystal violet (CV).
All reagents were commercial and used without further purification. Solvents were distilled from CaH2.
(§1) Reactions under microwave activation were performed using a Biotage Initiator system. NMR spectra were recorded at 293 K, unless otherwise stated, using a 300 or 400 or 500 MHz spectrometer.
Shifts are referenced relative to deuterated solvent residual peaks. Complete signal assignments from 1D and 2D NMR spectroscopy were based on COSY, HSQC, and HMBC correlations. High-resolution (HR-ESI- QToF) mass spectra were recorded using a Bruker MicroToF-Q II XL spectrometer. Thin-layer chromatography (TLC) was carried out on aluminum sheets coated with silica gel 60 F254 (Merck). […] IR spectra were recorded on a Shimadzu FTIR-8400S IR spectrophotometer and n are expressed in cm-1. NMR spectra were recorded on a Bruker DRX (1H at 300 or 400 MHz, 13C at 75 or 100 MHz) or on a Bruker AV500 spectrometer (1H at 500 MHz, 13C at 125 MHz). HRMS were recorded in electrospray ionization mode on a micro q-tof Micromass in strument (3000 V) with an internal lock mass (H3PO4) and an external lock mass (Leu- […]

The next assay has as its system PAO1. The assay can be described thus: PAO1 growth inhibition control test. Format: cell-based, Pseudomonas aeruginosa. The settings on record: PAO1 in the presence of clusters. How it is done:
To check that differences observed were not due to bacterial growth defect in the presence of clusters, a growth inhibition control experiment was performed (Figure 4C). […] A) Biofilm growth assay in LB medium. B) Statistical analysis (above, n = 5, duplicate UV measurements) of ethanol-solubilized biofilm recovered from each well (below). C) PAO1 growth inhibition control test.

For a further assay, the target named is lecB (Pseudomonas aeruginosa, UniProt Q9HYN5). The assay can be described thus: Isothermal titration calorimetry (ITC), binding to lecB. How it is done:
The affinities of the designed glycoconjugates with lecA and lecB were determined by isothermal titration calorimetry (ITC) by addition of the ligands to a solution of lectin (Figure 3). Dissociation constants (Kd) and thermodynamic parameters (ΔG, ΔH, −TΔS) are listed in Table 1, together with the experimental binding stoichiometry (n), defined as the number of glycocluster ligands per monomer of lectin.
The observed β/N values in Table 1, which reflect the relative affinity per unit sugar, are 29 for the trivalent cluster and in the range of 12 for the bivalent clusters. These values most likely reflect sub-site binding by the heterocyclic rings. […] These clusters thus represent a readily accessible, highly soluble, and convenient tool for the investigation of the role of lecA and lecB in the formation of biofilms by Pseudomonas aeruginosa. […]
as §1
Shifts are referenced relative to deuterated solvent residual peaks. […] High-resolution (HR-ESI- QToF) mass spectra were recorded using a Bruker MicroToF-Q II XL spectrometer. […] IR spectra were recorded on a Shimadzu FTIR-8400S IR spectrophotometer and n are expressed in cm-1. […]

Structures are written as SMILES. Some results are limits rather than exact numbers.

Experimental findings from publication PMC4168900, “Expeditive synthesis of trithiotriazine-cored glycoclusters and inhibition of Pseudomonas aeruginosa biofilm formation” (Beilstein Journal of Organic Chemistry, 2014) are described below.

T1 sequence (Q05097 2-122): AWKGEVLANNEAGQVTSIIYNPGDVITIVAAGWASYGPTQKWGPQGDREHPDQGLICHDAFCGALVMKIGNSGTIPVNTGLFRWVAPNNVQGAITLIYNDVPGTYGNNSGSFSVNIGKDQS
Chain of lecB (Q9HYN5 entry or part of it): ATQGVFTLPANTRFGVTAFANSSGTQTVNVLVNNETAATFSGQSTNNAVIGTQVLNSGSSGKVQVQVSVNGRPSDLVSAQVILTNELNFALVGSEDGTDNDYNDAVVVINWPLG

On to `CO[C@@H]1O[C@H](CO)[C@H](O)[C@H](O)[C@H]1O` [β-D-GalOMe, methyl β-D-galactoside], for which, on lecA [1] (ITC), the “β/N (improvement in affinity relative to the methyl glycoside, divided by the valency)” value stood at 1.
For `OC[C@H]1O[C@@H](n2cc(CSc3nc(SCc4cn([C@@H]5O[C@H](CO)[C@H](O)[C@H](O)[C@H]5O)nn4)nc(SCc4cn([C@@H]5O[C@H](CO)[C@@H](O)[C@H](O)[C@H]5O)nn4)n3)nn2)[C@H](O)[C@@H](O)[C@H]1O` [compound 17, 2,4-bis(1-(β-D-galactopyranosyl)triazol-4-ylmethylthio)-6-(1-(β-D-glucopyranosyl)triazol-4-ylmethylthio)-1,3,5-triazine], the Kd (usually a measure of binding affinity in units of concentration) at lecA [1] came to 3.4 µM. Besides, on lecA [1] (ITC), the ΔG was -7.48 kcal/mol; the ΔH is -12.2 kcal/mol; the “β/N (improvement in affinity relative to the methyl glycoside, divided by the valency)” value is on record as 14; the “−TΔS” value stood at 4.71 kcal/mol. Moreover, on lecA [1] (ITC), the “n (stoichiometry)” value is 0.54. Also, the “aggregation of lecA” value on lecA [2] was “only the divalent bis-D-Gal propargyl cluster 16 induces rapid aggregation of lecA”.
Compound `C#CCSc1nc(SCc2cn([C@@H]3O[C@H](CO)[C@H](O)[C@H](O)[C@H]3O)nn2)nc(SCc2cn([C@@H]3O[C@H](CO)[C@H](O)[C@H](O)[C@H]3O)nn2)n1` [compound 16, 2,4-bis(1-(β-D-galactopyranosyl)triazol-4-ylmethylthio)-6-(prop-2-ynylthio)-1,3,5-triazine] showed a Kd on lecA [1] of 4.4 µM. At lecA [1] (ITC), the ΔG was -7.29 kcal/mol; the ΔH was -11.4 kcal/mol; the “β/N (improvement in affinity relative to the methyl glycoside, divided by the valency)” value is recorded as 11; the “−TΔS” value came out at 4.11 kcal/mol. Besides, the “n (stoichiometry)” value at lecA [1] (ITC) was 0.79. Moreover, on lecA [2], the “aggregation of lecA” value is given as “induces rapid aggregation of lecA”.
For `OC[C@H]1O[C@@H](n2cc(CSc3nc(SCc4cn([C@@H]5O[C@H](CO)[C@H](O)[C@H](O)[C@H]5O)nn4)nc(SCc4cn([C@@H]5O[C@H](CO)[C@H](O)[C@H](O)[C@H]5O)nn4)n3)nn2)[C@H](O)[C@@H](O)[C@H]1O` [compound 1, 2,4,6-tris(1-(β-D-galactopyranosyl)triazol-4-ylmethylthio)-1,3,5-triazine], binding on lecA [1] was characterised by a dissociation constant (Kd) of 1.09 µM. On lecA [1] (ITC), the ΔG was -8.15 kcal/mol; the ΔH was -15.8 kcal/mol; the “β/N (improvement in affinity relative to the methyl glycoside, divided by the valency)” value is on record as 29; the “−TΔS” value was found to be 7.62 kcal/mol. For the same compound, the “n (stoichiometry)” value on lecA [1] (ITC) was determined as 0.31. Moreover, the “aggregation of lecA” value at lecA [2] is recorded as “only the divalent bis-D-Gal propargyl cluster 16 induces rapid aggregation of lecA”. Besides, in the assay on PAO1 biofilm, the biofilm formation entry is recorded as “statistically significant reduction in biofilm formation”. The bacterial growth defect result in the assay with PAO1 is reported as “No growth defect was observed”.
In turn, `OC[C@H]1O[C@@H](n2cc(CSc3nc(SCc4cn([C@@H]5O[C@H](CO)[C@@H](O)[C@H](O)[C@H]5O)nn4)nc(SCc4cn([C@@H]5O[C@H](CO)[C@@H](O)[C@H](O)[C@H]5O)nn4)n3)nn2)[C@H](O)[C@@H](O)[C@@H]1O` [compound 13, 2,4,6-tris(1-(β-D-glucopyranosyl)triazol-4-ylmethylthio)-1,3,5-triazine] displayed a ΔG on lecA [1] (ITC) of less than 0 kcal/mol. In addition, on lecA [1] (ITC, negative control), the “affinity for the lectin (in words)” value was “no affinity for the lectin”. Besides, the “aggregation of lecA” value at lecA [2] was “only the divalent bis-D-Gal propargyl cluster 16 induces rapid aggregation of lecA”. The bacterial growth defect entry in the assay on PAO1 was “No growth defect was observed”.
Compound `C[C@@H]1O[C@H](n2cc(CSc3nc(SCc4cn([C@H]5O[C@@H](C)[C@@H](O)[C@@H](O)[C@@H]5O)nn4)nc(SCc4cn([C@H]5O[C@@H](C)[C@@H](O)[C@@H](O)[C@@H]5O)nn4)n3)nn2)[C@@H](O)[C@H](O)[C@@H]1O` [compound 14, 2,4,6-tris(1-(β-L-fucopyranosyl)triazol-4-ylmethylthio)-1,3,5-triazine] registered a Kd on lecB of 50 µM. In the assay with PAO1 biofilm, the biofilm formation result is on record as “statistically significant reduction in biofilm formation”. In addition, in the assay on PAO1, the bacterial growth defect result was “No growth defect was observed”.
